1 molecule from paper PMC7894426, “Influence of verapamil on the pharmacokinetics of rotundic acid in rats and its potential mechanism” (Pharmaceutical Biology, 2021) can be followed below.

Like-named read-outs stand apart in the source and are kept apart here.

The target in one data set is T1, CYP2C9 (Homo sapiens, UniProt P11712).
T1 construct: purchased Research Institute for Liver Disease (Shanghai) Co., Ltd
Briefly: Metabolic depletion of RA by rhCYP2C9. The conditions noted are these: rhCYP2C9 25 pM, RA 2 µM, 30 min. Type of data set: in vitro ADME. As to the method: The metabolic stability of RA was evaluated against five rhCYPs (1A2, 2C8, 2C9, 2D6 and 3A4). Incubation was taken place in 0.1 M sodium phosphate buffer (pH 7.4) containing 5 mM MgCl2, 1 mM NADPH, and 25 pM rhCYP enzyme protein at 37 °C in a total volume of 1 mL. After pre-incubated for 5 min, the reactions were started by the addition of RA methanol solution (final concentration of 2 µM). Aliquots of 50 µL incubation solution were collected from the reaction at 0, 5, 10, 20 and 30 min, and quenched with 50 µL ice-cold methanol (containing 0.5% formic acid) and 100 µL ice-cold acetonitrile containing IS (10 ng/mL). The heat-inactivated rhCYP3A4 were used as negative controls. All reactions were conducted in triplicate, followed by LC-MS/MS analysis. Results presented in percentage of drug remaining in incubation starting at 100% at time zero.

The nature of data set [1]: In vivo pharmacokinetic study of oral rotundic acid with or without verapamil pre-treatment. Also on record: species or system Sprague–Dawley rats. The conditions noted are these: rats, RA 10 mg/kg oral; for AUC(0-inf) / CL/F / Cmax / Vd/F / half-life / AUC(0-t) / Tmax: male, Sprague-Dawley, rat, plasma, po, 10 mg/kg; for AUC(0-t): read-out: AUC0–24. The method, then:
Male Sprague–Dawley rats (180–220 g) were purchased from SiPeiFu (Beijing) Biotechnology Co., Ltd. (Beijing, China). Rats were housed in a breeding room at stable temperature (22 ± 3 °C), humidity (55 ± 10%), and under non-pathogenic conditions. All animals were placed under the above conditions and acclimatized to the facilities for one week, then fasted for 12 h with water ad libitum before the experiments. The protocols involving experimental animals were carried out by the guidelines of the Animal Ethical Committee of Tianjin Institute of Pharmaceutical Research (Tianjin, China).
To evaluate the influence of verapamil on the in vivo pharmacokinetics of RA, the male Sprague–Dawley rats were randomly divided into three groups (n = 6), including a control group and two pre-treatment groups. The pre-treatment groups received verapamil orally by gavage at a dose of 25 and 50 mg/kg (dissolved in 5% gum arabicin at a concentration of 5 and 10 mg/mL, respectively) separately for 15 min before the administration of RA at a dose of 10 mg/kg (dissolved in 5% gum arabicin at a concentration of 2 mg/mL). The dose of verapamil selected was equated to the human maximum recommended daily dose of 240–480 mg for a 60 kg person following allometric conversion (US Food and Drug Administration [2005]; Cao et al. [2007]). The control group received equal amounts of the vehicle (5% gum arabicin) before the oral administration of RA. Whole blood samples (200 µL) were collected from the orbital venous plexus at 0.0833, 0.25, 0.5, 1, 1.5, 2, 3, 4, 6, 8, 10 and 24 h after oral administration. All samples were transferred into heparinized tubes and then centrifuged for 5 min at 12,000 rpm and 4 °C immediately. The supernatants of separated plasma samples were harvested and stored at −20 °C until LC-MS/MS analysis.
RA was extracted from the sample using a simple protein precipitation method with a 3-fold volume of an organic solvent consisting of methanol-acetonitrile (1:2, v/v). Briefly, a 50 µL aliquot of plasma sample was thawed at room temperature and was then precipitated by 50 µL of methanol and 100 µL of acetonitrile containing IS (10 ng/mL). The sample was mixed uniformly for 1 min, and then centrifuged for 10 min at 12,000 rpm and 4 °C. Subsequently, 10 µL supernatants were injected into the LC-MS/MS system for analysis.
The separation and mass spectrometric analysis of the RA was achieved on a Waters ACQUITY^TM Ultra Performance LC system coupled with a Tandem Quadrupole (TQ) Detector equipped with an electrospray ionization (ESI) source. Chromatographic separation was performed at 40 °C with an ACQUITYUPLC BEH C8 column (1.7 µm, 2.1 × 50 mm, Waters Corp., USA). The mobile phase consisted of methanol-acetonitrile (50:50, v/v, mobile phase A), and 5 mM ammonium formate-methanol (90:10, v/v, mobile phase B). While the gradient elution procedure was employed for the separation of analytes at a flow rate of 0.3 mL/min. The optimized gradient elution program was as follows: 0 min 60% B, 3 min 10% B, 4 min 10% B, and 5 min 60% B. The injection volume was 10 µL at an autosampler temperature of 6 °C. The analytical run time for each sample was 5.0 min. The HPLC elution was injected into waste for the first 1.2 min, into the MS detector for the next 1 min, and back into waste for the remaining run time. RA and IS were monitored with the mass spectrometer by negative ESI source mode. The ionization source parameters were set as follows: 2.5 kV, 30 V, 120 °C, 350 °C, 50 L/h, and 650 L/h for capillary voltage, cone voltage, source temperature, desolvation temperature, cone gas, and desolvation gas, respectively. The optimal collision energy was operated at 30 V for RA and 20 V for IS. Argon was used as the collision gas. Samples were analyzed by multiple reaction monitoring (MRM) of the transitions of m/z 487.3 → 469.3 for RA and m/z 256.0 → 227.0 for IS, respectively. The dwell time was set at 0.2 s per transition. Data were acquired by MassLynx 4.1 software. […]

The mark [2] stands for this setting: pre-treatment of verapamil 25 mg/kg.
Setting [3] is: pre-treatment of verapamil 50 mg/kg.

T1 sequence (P11712 whole entry): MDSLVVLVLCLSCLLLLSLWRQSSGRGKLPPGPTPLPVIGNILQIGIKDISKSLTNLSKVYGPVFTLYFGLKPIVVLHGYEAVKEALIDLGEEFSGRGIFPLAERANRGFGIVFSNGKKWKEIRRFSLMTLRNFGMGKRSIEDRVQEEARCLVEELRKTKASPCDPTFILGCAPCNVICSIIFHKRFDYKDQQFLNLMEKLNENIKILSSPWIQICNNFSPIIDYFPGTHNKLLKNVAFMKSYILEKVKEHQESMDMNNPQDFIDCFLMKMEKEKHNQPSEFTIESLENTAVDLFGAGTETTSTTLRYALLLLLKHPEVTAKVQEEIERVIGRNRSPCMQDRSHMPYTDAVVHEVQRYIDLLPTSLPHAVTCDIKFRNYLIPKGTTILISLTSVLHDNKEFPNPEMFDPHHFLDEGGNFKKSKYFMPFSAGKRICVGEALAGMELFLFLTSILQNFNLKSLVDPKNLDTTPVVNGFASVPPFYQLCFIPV

`C[C@@H]1CC[C@]2(C(=O)O)CC[C@]3(C)C(=CC[C@@H]4[C@@]5(C)CC[C@H](O)[C@@](C)(CO)[C@@H]5CC[C@]43C)[C@@H]2[C@]1(C)O` [RA, Rotundic acid]: the RA converted on CYP2C9 was 41.4%. Besides, in data set [1] (control (vehicle)), the AUC(0-inf) (commonly the area under the concentration-time curve extrapolated to infinity) was 432 ± 64.2 ng·h/mL; the CL/F (in general, clearance divided by bioavailability, as obtained after extravascular dosing) is 393 mL/min/kg; the highest concentration (Cmax) (in general, the maximum level reached in the sampled fluid or tissue) amounted to 108 ± 10.5 ng/mL; the Vd/F (as a rule, the apparent distribution volume after extravascular dosing) was 64.6 ± 22.6 L/kg. Further, in data set [1] (control (vehicle)), the half-life (in general, how long it takes for the measured level to halve) is about 2 h; the AUC(0-t) was found to be 405 ± 68.2 ng·h/mL; the t1/2 worked out at 1.85 ± 0.390 h. Moreover, the Tmax in data set [1] (control (vehicle), read-out: Tmax) worked out at 0.292 ± 0.228 h. In data set [1] (setting [2]), the total exposure AUC(0-inf) was 539 ± 53.6 ng·h/mL, the CL/F was 312 mL/min/kg, the peak concentration (Cmax) worked out at 117 ± 14.9 ng/mL and the Vd/F was 66.7 ± 21.1 L/kg. Further, in data set [1] (setting [2]), the half-life is 2.44 ± 0.572 h and the AUC(0-t) amounted to 496 ± 63 ng·h/mL. In addition, the Tmax in data set [1] (pre-treatment of verapamil 25 mg/kg, read-out: Tmax) was 0.625 ± 0.306 h. In data set [1] (setting [3]), the AUC(0-inf) amounted to 836 ± 116 ng·h/mL, the apparent clearance (CL/F) is 203 mL/min/kg, the Cmax turned out to be 219 ± 36.8 ng/mL and the Vd/F worked out at 41.3 ± 12.3 L/kg. Besides, in data set [1] (setting [3]), the half-life was 2.31 ± 0.404 h and the AUC(0-t) was 782 ± 115 ng·h/mL. In data set [1] (pre-treatment of verapamil 50 mg/kg, read-out: Tmax), the Tmax stood at 1.17 ± 0.516 h. Besides, the Tmax in data set [1] (without verapamil, read-out: time to peak plasma concentration (converted)) was about 0.25 h.
